Measured values taken from patent US20070239107A1, “Device and Method for Administering Therapeutic Agents” (priority 2003, published 2007).

Tests used:
[1] = Kinetics of NO release from the retention balloon (headspace chemiluminescence); type: physicochemical; conditions: balloon filled with ascorbic acid/nitrite solution; NO-free air flush 4.5 L/min
Excerpt: The kinetics of NO release from the retention balloon was monitored in separate experiments. The catheter was placed in the flask and after filling the retention balloon with the ascorbic acid/nitrite solution the flask was closed. Synthetic NO-free air was flushed via an inlet at a rate of 4.5 L/min and headspace NO was continuously measured from an outlet by a rapid-response chemiluminescence system (Aerocrine AB, Stockholm, Sweden).

[2] = test system: E. coli isolated from a patient with urinary tract infection and E. coli ATCC 25992; test: Viable counts of E. coli in urine surrounding the filled retention balloon; type: cell-based; conditions: solution in retention balloon, start 10^5 cfu/ml, 37° C.
E. coli = test: Comparative experiment with traditional antibiotic in retention balloon or directly in urine
Procedure: An overnight culture was added to 25 ml of urine to a final density of 10^5 CFU/ml. The urine was placed in long-necked 50 ml flasks with a shape resembling the urinary bladder and the urethra. An all-silicone catheter (Argyle, Sherwood Medical, Tullamore, Ireland) was placed in the flask and the retention balloon was filled with 10 ml of saline containing ascorbic acid (10 mM) and sodium nitrite (5 mM). The pH of the solution was adjusted to 2.5 using hydrochloric acid (3 M). Ascorbic acid and nitrite were prepared and mixed immediately before administration. Ascorbic acid solution alone (pH 2.5) was used as control. After filling the retention balloons the catheter was gently pulled outwards and fixed at the neck whereby the flask opening was sealed off. Then the flasks were turned up side down and incubated at 37° C. for 24 h. At the end of the experiment the urine was serially diluted and further cultured on blood agar plates for determination of viable counts (cfu/ml). All experiments were made in quadruplicate.
In a separate flask ciprofloxacin was added directly to the urine.

[N]=O [NO, nitric oxide]
half-time of decrease of NO release rate from the balloons [1]: about 30 min

O=C1O[C@H]([C@@H](O)CO)C(O)=C1O [ascorbic acid alone, ascorbic acid]
bacterial counts after 24 h [2]: 10^8 cfu/ml

O=C(O)c1cn(C2CC2)c2cc(N3CCNCC3)c(F)cc2c1=O [ciprofloxacin]
antibacterial effect in urine (E. coli; antibiotic added directly to the urine): effectively killed the bacteria
antibacterial effect in the urine surrounding the balloon (E. coli; antibiotic placed in the retention balloon): no antibacterial effect
